Test results from patent publication US11180452B2, “Methods and compositions for selectively inhibiting pathogenic microbes” (priority 2019, dated 2021).
Converted amounts (≈) assume the structure as drawn. “And” between values parts separate entries of the source, which are not always exact repeats. Equal values may be shown once. Read-outs that look alike come from different tables or passages of the source.

What was measured:
[1] = system: Bacillus subtilis; assay: Bacillus subtilis MIC / MBC; type: cell-based; details: for MBC: Bacillus subtilis NRRL: B-571, minimum bactericidal concentration; for MIC: Bacillus subtilis
[2] = system: Burkholderia thailandensis Brett et al ATCC: 700388; assay: microbe, parasite or virus in culture; type: cell-based
[3] = system: Francisella tularensis subsp. Holarctica Strain LVSR NR-597; assay: microbe, parasite or virus in culture; type: cell-based
[4] = system: N. gonorrhoeae; assay: N. gonorrhoeae MIC; type: cell-based; details: Neisseria gonorrhoeae
[5] = system: Candida glabrata; assay: Candida glabrata MIC / MFC; type: cell-based; details: Nakaseomyces glabratus, Candida glabrata #584 (Table 2); for MFC: minimum fungicidal concentration, read-out: MFC; for MIC: read-out: MIC
[6] = system: NoSpin HepaRG cells; assay: HepaRG cytotoxicity, MTT assay EC50; type: cell-based, human; details: Homo sapiens, HepaRG; cytotoxicity EC50, Table 9
Experimental: Additionally, the antimicrobial compounds were analyzed for cytotoxicity. […] We utilized the standard MTT assay (Promega CellTiter 96) and GraphPad Prism 7 software to determine EC50 values for each analogue. Briefly, 20,000 HepG2 cells in 200 μl of the ATCC recommended media were seeded in each well of a 96-well plate with a moisture barrier created in the outermost wells. The cells were allowed to attach overnight at 37° C., and then observed under phase contrast microscopy for proper morphological characteristics. […] Once incubations were complete, the spectrophotometric absorbance of the samples was measured at a wavelength of 595 nm. […] For the HepaRG assay, NoSpin HepaRG™ cells (Lonza, cat #NSHPRG) were thawed and plated with 20,000 cells per well. They were allowed to attach for 4 h (optimal DME profile per Lonza's testing) before dosing following the identical protocol as above.

[7] = system: Francisella tularensis strains; assay: microbe, parasite or virus in culture; type: cell-based
[8] = system: Bacillus thuringiensis; type: cell-based; details: Bacillus thuringiensis Berliner ATCC: 10792; for MIC: Bacillus thuringiensis, read-out: MIC
[9] = system: Trichophyton rubrum; assay: MIC against Trichophyton rubrum; type: cell-based; details: Trichophyton rubrum Castellani Sabouraud ATCC: 28188; read-out: MIC
[10] = Toxicity in mice, body weight over 7 days; type: in vivo, Balb/c mice; details: for Animal body weight (kg) Day 0 / Animal body weight (kg) Day 1 / Animal body weight (kg) Day 2 / Animal body weight (kg) Day 3 / Animal body weight (kg) Day 4 / Animal body weight (kg) Day 5 / Animal body weight (kg) Day 6 / Animal body weight (kg) Day 7: mice, IP; for Animal body weight (kg) Day 0: Day 0, individual animals; for Animal body weight (kg) Day 1: Day 1, individual animals; for Animal body weight (kg) Day 2: Day 2, individual animals; for Animal body weight (kg) Day 3: Day 3, individual animals; for Animal body weight (kg) Day 4: Day 4, individual animals; for Animal body weight (kg) Day 5: Day 5, individual animals; for Animal body weight (kg) Day 6: Day 6, individual animals; for Animal body weight (kg) Day 7: Day 7, individual animals
From the text: The vehicle is 40% PEG300 solution in 0.9% NaCl. […] Thus, the compounds are useful for in vivo antimicrobial administration.

[11] = Bacillus subtilis (Ehrenberg 1835) Cohn 1872 NRRL: B-571, read-out: MIC
[12] = read-out: F. tularensis BSL-3 MIC, Strain 100
[13] = read-out: F. tularensis BSL-3 MIC, strain HN-63
[14] = read-out: F. tularensis BSL-3 MIC, strain LVS
[15] = read-out: F. tularensis BSL-3 MIC, strain MA00-2987
[16] = read-out: F. tularensis BSL-3 MIC, strain MO #1
[17] = read-out: F. tularensis BSL-3 MIC, strain MO #2
[18] = read-out: F. tularensis BSL-3 MIC, strain MO #3
[19] = read-out: F. tularensis BSL-3 MIC, strain OR-96
[20] = read-out: F. tularensis BSL-3 MIC, strain SCHU S4
[21] = read-out: F. tularensis BSL-3 MIC, strain WY-96
[22] = read-out: MAX, highest MIC over the Francisella tularensis strains
[23] = read-out: MIN, lowest MIC over the Francisella tularensis strains

## COc1ccc2[nH]cc(Sc3ccc(Br)cc3)c2c1 [Compound 172E, 3-((4-bromophenyl)thio)-5-methoxy-1H-indole]
[1]
  MBC: 6.25 µg/mL (≈ 18.7 µM)
[1]; [11]
  MIC: 1.56 µg/mL (≈ 4.67 µM)
[2]
  MIC: > 50 µg/mL
[3]
  MIC: 0.78 µg/mL (≈ 2.33 µM)
[4]; strain #167
  MIC: < 0.39 µg/mL
[4]; strain #203
  MIC: 3.13 µg/mL (≈ 9.36 µM)
[4]; strain #205
  MIC: 3.13 µg/mL (≈ 9.36 µM)
[5]
  MFC: > 50 µg/mL
  MIC: 6.25 µg/mL (≈ 18.7 µM)
[6]
  EC50: 23.3 µg/mL (≈ 69.7 µM)
[7]
  MIC50: 8 µg/mL (≈ 23.9 µM)
[7]; [12]
  MIC: > 8 µg/mL
[7]; [13]
  MIC: 8 µg/mL (≈ 23.9 µM)
[7]; [14]
  MIC: > 8 µg/mL
[7]; [15]
  MIC: 8 µg/mL (≈ 23.9 µM)
[7]; [16]
  MIC: 5.33 µg/mL (≈ 15.9 µM)
[7]; [17]
  MIC: 3.33 µg/mL (≈ 9.96 µM)
[7]; [18]
  MIC: 8 µg/mL (≈ 23.9 µM)
[7]; [19]
  MIC: 8 µg/mL (≈ 23.9 µM)
[7]; [20]
  MIC: 4 µg/mL (≈ 12 µM)
[7]; [21]
  MIC: > 8 µg/mL
[7]; [22]
  MIC: > 8 µg/mL
[7]; [23]
  MIC: 3.33 µg/mL (≈ 9.96 µM)
[8]
  MBC: 12.5 µg/mL (≈ 37.4 µM)
  MIC: 1.56 µg/mL (≈ 4.67 µM)
[9]
  MIC: 2.08 µg/mL (≈ 6.22 µM)

## Oc1ccccc1Sc1c[nH]c2ccc(Br)cc12 [Compound 174AI, 2-((5-bromo-1H-indol-3-yl)thio)phenol]
[1]
  MBC: 6.25 µg/mL (≈ 19.5 µM)
[1]; [11]
  MIC: 0.78 µg/mL (≈ 2.44 µM)
[1]; strain B-571 (Table 4), read-out: Bacillus subtilis MIC
  MIC: 0.78 µg/mL (≈ 2.44 µM)
[1]; strain B-1985, read-out: Bacillus subtilis MIC
  MIC: 0.78 µg/mL (≈ 2.44 µM)
[1]; strain B-3665, read-out: Bacillus subtilis MIC
  MIC: 6.25 µg/mL (≈ 19.5 µM)
[1]; strain B-14322, read-out: Bacillus subtilis MIC
  MIC: 3.13 µg/mL (≈ 9.77 µM)
[1]; strain B-41090, read-out: Bacillus subtilis MIC
  MIC: 6.25 µg/mL (≈ 19.5 µM)
[1]; strain B-41581, read-out: Bacillus subtilis MIC
  MIC: 6.25 µg/mL (≈ 19.5 µM)
[1]; strain BD-594, read-out: Bacillus subtilis MIC
  MIC: 6.25 µg/mL (≈ 19.5 µM)
[2]
  MBC: > 50 µg/mL
  MIC: 12.5 µg/mL (≈ 39 µM)
[3]
  MIC: 2 µg/mL (≈ 6.25 µM)
[10]; 6-week-old Balb/c mice, body weight over 7 days, vehicle 40% PEG300 in 0.9% NaCl
  toxicity in mice by body weight: did not have significant toxicity
[10]; 0.1 mg/kg, 0.1 mg/kg
  Animal body weight (kg) Day 0: 0.023 kg (2×) and 0.022 kg
  Animal body weight (kg) Day 1: 0.022 kg (2×) and 0.021 kg
  Animal body weight (kg) Day 2: 0.023 kg and 0.022 kg and 0.021 kg
  Animal body weight (kg) Day 3: 0.024 kg and 0.022 kg (2×)
  Animal body weight (kg) Day 4: 0.024 kg and 0.022 kg (2×)
  Animal body weight (kg) Day 5: 0.024 kg and 0.022 kg (2×)
  Animal body weight (kg) Day 6: 0.024 kg and 0.022 kg (2×)
  Animal body weight (kg) Day 7: 0.023 kg (2×) and 0.022 kg
[10]; 1 mg/kg, 1 mg/kg
  Animal body weight (kg) Day 0: 0.022 kg and 0.024 kg and 0.026 kg
  Animal body weight (kg) Day 1: 0.023 kg and 0.024 kg and 0.026 kg
  Animal body weight (kg) Day 2: 0.023 kg and 0.025 kg and 0.026 kg
  Animal body weight (kg) Day 3: 0.023 kg and 0.025 kg and 0.027 kg
  Animal body weight (kg) Day 4: 0.022 kg and 0.025 kg and 0.026 kg
  Animal body weight (kg) Day 5: 0.022 kg and 0.025 kg and 0.026 kg
  Animal body weight (kg) Day 6: 0.022 kg and 0.024 kg and 0.026 kg
  Animal body weight (kg) Day 7: 0.022 kg and 0.024 kg and 0.026 kg
[10]; 10 mg/kg, 10 mg/kg
  Animal body weight (kg) Day 0: 0.022 kg and 0.026 kg and 0.024 kg
  Animal body weight (kg) Day 1: 0.021 kg and 0.024 kg and 0.022 kg
  Animal body weight (kg) Day 2: 0.022 kg and 0.024 kg and 0.023 kg
  Animal body weight (kg) Day 3: 0.022 kg and 0.025 kg and 0.023 kg
  Animal body weight (kg) Day 4: 0.022 kg and 0.026 kg and 0.024 kg
  Animal body weight (kg) Day 5: 0.023 kg and 0.026 kg and 0.024 kg
  Animal body weight (kg) Day 6: 0.022 kg and 0.026 kg and 0.024 kg
  Animal body weight (kg) Day 7: 0.022 kg and 0.026 kg and 0.023 kg
[4]; strain #167
  MIC: < 0.39 µg/mL
[5]
  MFC: 25 µg/mL (≈ 78.1 µM)
  MIC: 6.25 µg/mL (≈ 19.5 µM)
[6]
  EC50: 27.4 µg/mL (≈ 85.6 µM)
[7]
  MIC50: 3 µg/mL (≈ 9.37 µM)
[7]; [12]
  MIC: 6 µg/mL (≈ 18.7 µM)
[7]; [13]
  MIC: 2 µg/mL (≈ 6.25 µM)
[7]; [14]
  MIC: 4 µg/mL (≈ 12.5 µM)
[7]; [15]
  MIC: 1.67 µg/mL (≈ 5.22 µM)
[7]; [16]
  MIC: 1.33 µg/mL (≈ 4.15 µM)
[7]; [17]
  MIC: 1.33 µg/mL (≈ 4.15 µM)
[7]; [18]
  MIC: 2 µg/mL (≈ 6.25 µM)
[7]; [19]
  MIC: 4 µg/mL (≈ 12.5 µM)
[7]; [20]
  MIC: 4 µg/mL (≈ 12.5 µM)
[7]; [21]
  MIC: 6 µg/mL (≈ 18.7 µM)
[7]; [22]
  MIC: 6 µg/mL (≈ 18.7 µM)
[7]; [23]
  MIC: 1.33 µg/mL (≈ 4.15 µM)
[8]
  MBC: > 50 µg/mL
  MIC: 0.78 µg/mL (≈ 2.44 µM)

## Fc1ccc2[nH]cc(Sc3ccc(Br)cc3)c2c1 [Compound 174E, 3-((4-bromophenyl)thio)-5-fluoro-1H-indole]
[1]
  MBC: 3.13 µg/mL (≈ 9.71 µM)
[1]; [11]
  MIC: 1.56 µg/mL (≈ 4.84 µM)
[2]
  MIC: > 50 µg/mL
[3]
  MIC: 0.78 µg/mL (≈ 2.42 µM)
[4]; strain #167
  MIC: < 0.39 µg/mL
[4]; strain #203
  MIC: 1.56 µg/mL (≈ 4.84 µM)
[4]; strain #205
  MIC: 1.56 µg/mL (≈ 4.84 µM)
[5]
  MIC: 3.13 µg/mL (≈ 9.71 µM)
[6]
  EC50: 23.6 µg/mL (≈ 73.2 µM)
[8]
  MBC: 3.13 µg/mL (≈ 9.71 µM)
  MIC: 1.56 µg/mL (≈ 4.84 µM)
[9]
  MIC: 2.01 µg/mL (≈ 6.24 µM)
